Measured values reported in patent US20260191874A1, “FUSED AMINO PYRIMIDINE COMPOUNDS FOR TREATMENT OF AUTISM SPECTRUM DISORDER, OBSESSIVE COMPULSIVE DISORDER AND TICS” (Ovid Therapeutics Inc., priority 2024, published 2026).

Experiments:
[1] = molecular target: T1, KCC4 (Homo sapiens, UniProt Q9Y666); experiment: Tl+ flux assay in HEK-293 cells expressing KCC4; type: cell-based; conditions: read-out: concentration at which effects on KCC4 were seen (EC50 chart, FIG. 1G)
T1 construct: expressed in transfected cells; host or cells: HEK-293
T1 sequence (Q9Y666 1-1083): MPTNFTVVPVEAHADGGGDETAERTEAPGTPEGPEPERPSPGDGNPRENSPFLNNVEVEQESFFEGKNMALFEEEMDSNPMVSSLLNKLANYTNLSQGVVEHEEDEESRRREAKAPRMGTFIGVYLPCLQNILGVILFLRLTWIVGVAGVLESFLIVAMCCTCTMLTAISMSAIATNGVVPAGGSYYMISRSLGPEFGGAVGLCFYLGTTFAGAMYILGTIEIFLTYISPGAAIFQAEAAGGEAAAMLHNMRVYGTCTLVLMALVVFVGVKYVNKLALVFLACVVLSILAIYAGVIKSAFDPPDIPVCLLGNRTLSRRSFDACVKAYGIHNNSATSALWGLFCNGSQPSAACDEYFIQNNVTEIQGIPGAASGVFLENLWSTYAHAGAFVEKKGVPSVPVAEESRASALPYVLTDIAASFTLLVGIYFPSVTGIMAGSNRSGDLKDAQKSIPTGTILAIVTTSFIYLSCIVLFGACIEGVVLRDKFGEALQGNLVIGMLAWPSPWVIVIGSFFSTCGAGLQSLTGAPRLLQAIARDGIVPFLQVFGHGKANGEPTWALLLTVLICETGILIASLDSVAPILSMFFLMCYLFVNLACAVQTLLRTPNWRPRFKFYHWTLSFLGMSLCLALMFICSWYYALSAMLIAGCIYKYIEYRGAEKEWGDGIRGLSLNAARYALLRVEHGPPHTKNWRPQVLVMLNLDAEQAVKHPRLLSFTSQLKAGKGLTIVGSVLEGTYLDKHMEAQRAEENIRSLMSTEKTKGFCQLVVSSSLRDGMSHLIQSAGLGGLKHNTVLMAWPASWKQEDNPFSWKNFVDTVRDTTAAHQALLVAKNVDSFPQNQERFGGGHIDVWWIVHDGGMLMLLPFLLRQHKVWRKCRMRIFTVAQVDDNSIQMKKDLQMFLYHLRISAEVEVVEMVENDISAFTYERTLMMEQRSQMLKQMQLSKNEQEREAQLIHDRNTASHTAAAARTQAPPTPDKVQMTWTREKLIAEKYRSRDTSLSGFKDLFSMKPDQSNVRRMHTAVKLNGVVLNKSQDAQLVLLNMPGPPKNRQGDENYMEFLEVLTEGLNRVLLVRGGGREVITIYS
Procedure: FLIPR TI Flux assay. HEK-293 cells were washed with HBSS, and then incubated with loading buffer containing TI sensitive fluorescent dye (https://www.moleculardevices.com), 20 μM bumetanide 20 μM ouabain and 2.5 mM probenecid for 1 h at room temperature (RT) under control conditions or with drugs in the dark using a FlexStation 3 microplate reader (Molecular Devices) and imaged […] for 30 min. Stimulus buffer was added containing 5 mM K^+/0.5 mM Tl^+ and cells were imaged every 1.5 over a 190 second time course The initial rate Tl^+ uptake (Relative Fluorescence Units (RFU) per second) was determined following addition of the stimulus buffer as outlined previously (Conway et al., 2017, supra) (Lee et al., 2022, supra).
Several studies have shown that the activity and plasma membrane accumulation of KCC2 is potentiated via phosphorylation of S940, a process mediated by the activity of protein kinase C and protein phosphatase 1 (Lee et al., 2011, supra; Lee et al., J Biol Chem 282, 29777-29784 (2007); Moore et al., Proc. Natl. Acad. Sci. U.S.A 115, 10166-10171 (2018); Moore et al., Trends Neurosci. 40, 555-571 (2017); Silayeva et al., Proc. Natl. Acad. Sci. U.S.A 112, 3523-3528 (2015)). […] Compared to KCC2, effects on KCC3, KCC4, and NKCC1 were only seen at concentrations more than 35-fold that of KCC2 (≥100 μM) (FIG. 1G).

[2] = design: species or system mice; conditions: in vivo
[3] = system: panel of 144 protein kinases; experiment: SelectScreen protein kinase panel; type: biochemical; conditions: 144 protein kinases incl. PKC isoforms, OSR1, SPAK, WNK
Procedure: Aliquots of HEK-293 cells expressing KCC2 were exposed to 30 μM SSA, heated from 37-55° C. The remaining level of soluble native KCC2 at each temperature was measured by immunoblotting and normalized to the level seen at 37° C. which was given a value of 1. […] This panel included protein kinase C isoforms, OSR1, SPAK (STK39) and with-no-lysine kinases (WNK), all of which phosphorylate KCC2 on multiple residues to indirectly modify its activity (Kahle et al., 2013, supra; Smalley et al., 2020, supra).

For C[C@@H]1CN(c2nc3c(c(Nc4ccc(C5CCCCC5)cc4)n2)COC3)CCO1 [Compound A, (R)—N-(4-cyclohexylphenyl)-2-(2-methylmorpholino)-5,7-dihydrofuro[3,4-d]pyrimidin-4-amine], the EC50 [1] was ≥ 100 µM, the “gross effects on mouse behavior” value [2] was “no gross effects” and the “total distance traveled in open field” value ([2]; mouse, sc, 50 mg/kg) was 6134.2±235.3 cm. The “effect on activity of kinase panel” value [3] was “did not modify the activity”.
